# Measured values taken from patent publication US20230210867A1, “TREATMENT OF ADJUSTMENT DISORDERS” (VISTAGEN THERAPEUTICS, INC., priority 2020, published 2023).
# What was measured:
# [1] = test system: symptoms of social anxiety disorder (SAD); details: earlier clinical studies; cited from earlier work
# [2] = test system: Adjustment Disorder with Anxiety (AjDA) symptoms in adults; test: Phase 2A clinical trial of PH94B neuroactive nasal spray in Adjustment Disorder with Anxiety (AjDA); format: in vivo, human; details: adult subjects with AjDA, compared to placebo
# From the text: A clinical trial is designed and conducted to evaluate the efficacy, safety and tolerability of daily administration of PH94B neuroactive nasal spray (Example 1) as a treatment of Adjustment Disorder with Anxiety (AjDA) symptoms in adults, associated with identifiable stressors related to the COVID-19 pandemic. Subject are confirmed with current diagnoses of this condition as defined in the Diagnostic and Statistical Manual of Mental Disorders, 5th Edition (DSM-5).
# The PH94B study drug is delivered intranasally with the nozzle of the applicator positioned in the nasal vestibule and directed toward the midline (medial part or nasal septum). In order to administer study medication, the actuator (pusher) should be depressed.
# Prior to the use of a new study medication bottle, the subject is instructed to shake the bottle five times and to prime the bottle by depressing the actuator five times. […]
# 1. Individual subject improvement as assessed by the Sheehan Disability Scale (SDS) at the end of week 4 of treatment with PH94B compared to placebo.
# 2. Individual subject improvement as assessed by the Clinical Global Impression-Improvement rating (CGI-I). […]
# 3. Individual subject improvement as assessed by the subject's self-assessment of improvement (PGI-C) at the end of week 4 of treatment with PH94B compared to placebo. […]
# [3] = all clinical studies to date; cited from earlier work
smiles,measurement,setting,value
"C[C@@]12C=CC[C@H]1[C@@H]1CCC3=C[C@@H](O)CC[C@]3(C)[C@H]1CC2 [PH94B, [3β]-androsta-4,16-dien-3-ol]",efficacy in treating symptoms of social anxiety disorder (SAD),[1],significant efficacy
same,anxiety levels as measured by the Hamilton Anxiety Scale (HAM-A),"[2]; 3.2 μg intranasal four times per day, four weeks",statistically significant reduction in anxiety levels
same,"secondary endpoints (SDS, CGI-I, PGI-C, ADNM)",[2]; end of week 4 of treatment,statistically significant improvement
same,safety in clinical studies,[3],safe
